# Laboratory results reported in US20070196811A1, “Use Of Flavanol Derivatives For The Cryopreservation Of Living Cells” (priority 2004, published 2007).
# System: spermatozoa
# Assay: Post-thaw sperm motility after freezing in supplemented CryoProtec medium, analyzed by CASA
# Assay type: cell-based
# Settings: for Percentage of motile spermatozoa: thawed after 24 h in liquid nitrogen, mean±SD, 5 experiments; for velocity parameters, including linear velocity (VSL) and lateral head displacement (AHL): post-thaw, Cryoprotec medium supplemented with compound
# Method: Aliquots of 50 μL of solutions of different 4-thioderivatives of flavan-3-ol of formula (I) hereof dissolved in PureSperm Wash medium (Nidacon International, Sweden), were added to 0.95 mL of the spermatozoa suspension (50 millions/mL) in CryoProtec freezing medium (Nidacon International, Sweden) in 1.8 mL Nunc vials in order to obtain final concentrations of 1, 10, 25, 50 and 100 μg/mL. Aliquots of 50 μL of solutions of (−)-epicatechin, a natural flavan-3-ol, were treated in the same way. As a control, 50 μL of PureSperm Wash medium (Nidacon International) were added instead of the solutions of the compounds of the invention (0 μg/mL). The percentage of motile cells in the different cellular suspensions was analyzed by CASA (Computer-Assisted Sperm Analysis) using an IVOS-IDENT (Hamilton-Thorn, Beverly, Mass.).
# The cellular suspensions were processed for freezing using a standard freezing gradient as follows: cooling from room temperature to 4° C. in 30 min, from 4° C. to 0° C. in 3 min and immediately transferred to liquid nitrogen tanks. After 24 h in liquid nitrogen, the samples were thawed in a water bath at 37° C.
# The percentage of motile spermatozoa in the different samples obtained above was analyzed by CASA. Since vials corresponding to the different compounds were in different boxes inside the nitrogen tanks, a control was used for each group of compounds.
# Values are the mean±SD from a total of 5 experiments per concentration.
# [1] = 1 μg/mL (approximate) compound in freezing medium
# [2] = 10 μg/mL (approximate) compound in freezing medium
# [3] = 25 μg/mL (approximate) compound in freezing medium
# [4] = 50 μg/mL (approximate) compound in freezing medium
# [5] = 100 μg/mL (approximate) compound in freezing medium
Structure (SMILES),Percentage of motile spermatozoa [1] [%],Percentage of motile spermatozoa [2] [%],Percentage of motile spermatozoa [3] [%],Percentage of motile spermatozoa [4] [%],Percentage of motile spermatozoa [5] [%],"velocity parameters, including linear velocity (VSL) and lateral head displacement (AHL)","post-thaw motility recovery versus control ((−)-epicatechin versus control, all concentrations)","protection, evaluated in terms of sperm motility (concentrations ranging from 1 to 100 μg/mL)",storage stabilizing cryoprotective effect (summary statement)
N[C@@H](CS[C@H]1c2c(O)cc(O)cc2O[C@H](c2ccc(O)c(O)c2)[C@@H]1O)C(=O)O [4β-(S-cysteinyl)epicatechin],47.6 ± 3.0,52.0 ± 2.3,61.8 ± 2.6,69.8 ± 3.2,70.2 ± 2.8,significantly higher,–,–,–
"Oc1cc(O)c2c(c1)O[C@H](c1ccc(O)c(O)c1)[C@H](O)C2 [(−)-epicatechin, reference compound]",46.8 ± 1.9,47.0 ± 2.2,47.6 ± 3.2,47.4 ± 2.6,46.8 ± 1.3,–,No significant differences,no significant protection,no significant storage stabilizing cryoprotective effect
"COC(=O)[C@H](CS[C@H]1c2c(O)cc(O)cc2O[C@H](c2ccc(O)c(O)c2)[C@@H]1O)NC(C)=O [Example 4, 4β-[S—(N-acetyl-O-methyl-cysteinyl)]epicatechin]",47.6 ± 3.7,49.8 ± 3.0,54.8 ± 5.2,59.4 ± 3.3,59.2 ± 2.8,significantly higher,–,–,–
